The values below come from patent US5538981A, “Tetrahydro-pyrido-indole” (Eli Lilly and Company, priority 1995, dated 1996).

Structures are written as SMILES. Where a name gives a salt, the structure may show the parent alone. Some results are limits rather than exact numbers.

In assay [1] the target is T1, 5-HT1c receptor (Bos taurus, UniProt A0AAA9SBU1).
T1 construct: natural pool of RNA-edited forms
T1 sequence (A0AAA9SBU1 33-457): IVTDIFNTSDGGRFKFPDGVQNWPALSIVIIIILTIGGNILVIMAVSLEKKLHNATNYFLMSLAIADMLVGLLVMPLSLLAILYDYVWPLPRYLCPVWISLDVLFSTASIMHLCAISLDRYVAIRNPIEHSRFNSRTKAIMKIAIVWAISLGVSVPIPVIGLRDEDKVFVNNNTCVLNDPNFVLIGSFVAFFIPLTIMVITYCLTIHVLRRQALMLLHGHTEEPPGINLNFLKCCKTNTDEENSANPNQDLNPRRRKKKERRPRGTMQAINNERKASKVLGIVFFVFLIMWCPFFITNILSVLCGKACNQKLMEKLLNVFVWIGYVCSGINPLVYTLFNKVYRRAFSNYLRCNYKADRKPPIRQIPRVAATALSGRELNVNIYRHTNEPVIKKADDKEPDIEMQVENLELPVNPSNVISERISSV
Put plainly: 5-HT1c receptor radioligand binding displacement assay ([3H]mesulergine, choroid plexus). Set-up: species or system beef. Conditions: beef choroid plexus; tritiated mesulergine 2.0 nM; pH 7.4; 37° C., 15 min.
Protocol: (§1) Beef brain was removed immediately after slaughter, and choroid plexus were dissected over ice. […] The brain of each was immediately removed and the cerebral cortex was dissected over ice. Tissues were homogenized in 9 volumes of 0.32 mol/L sucrose and centrifuged at 1,000×g for 10 minutes. The supernatant was centrifuged at 17,000×g for 20 minutes. The pellet was suspended in 100 volumes of 50 mM Tris-HCL (pH7.4), incubated at 37° C. for 10 minutes and centrifuged at 50,000×g for 10 minutes, and the process was repeated three times. The final pellets were frozen at -70° C. and used within 2 weeks. Pellets were rehydrated with physiological buffer prior to use.
(§2) For 5-HT1c receptor assays increasing concentrations of experimental compound, 50 mM Tris HCl buffer pH[7.4], and tritiated mesulergine (2.0 nM) (^3 H ligand) were combined in polystyrene tubes at room temperature. The reaction was initiated by the addition of the resuspended choroid plexus tissue which had been preincubated at 37° C. for 20 minutes. The reaction mixture was incubated in a 37° C. water bath for 15 minutes.
(§3) The reactions were terminated by rapid filtration, (Brandel Cell Harvestor), through Whatman GF/B glass filters that had been presoaked in Tris buffer pH [7.4]. The filters were then washed 2 times with 5 ml of ice cold Tris buffer pH [7.4]. Washed filters were placed in scintillation vials and 10 ml RedySolv, (Brandel), was added and samples were counted in a Searle D-300 beta counter. Means and standard error statistics were calculated for triplicate experimental determinations in certain cases. Mean values were obtained from three or more separate determinations. The incubation time for the reaction mixture was 15 minutes at 37° C.

The target in another assay is T2, 5-HT2 receptor (Rattus norvegicus, UniProt P14842).
T2 construct: The reaction was initiated by the addition of the resuspended rat cerebral cortex tissue; tissue Harlan Industries, Cumberland, Ind; (animals); host or cells: cerebral cortex of male Sprague-Dawley rats, washed membranes
The experiment in a line: 5-HT2 receptor radioligand binding displacement assay ([3H]ketanserin, cerebral cortex). Set-up: species or system rat (male Sprague-Dawley). The note with it: tritiated ketanserin 1 nM, pH 7.4, 37° C., 30 min, values over 100 nM accumulated before concentration range was reduced to 0.1 to 100 nM. The protocol:
The assays were conducted by the following procedures.
5-HT1c selective compounds can be identified using the following biological assay procedures. Compounds having a selective affinity for the 5-HT1c receptor have a low IC50 in the 5-HT1c receptor assay and a higher IC50 in the 5-HT2 receptor assay.
I. Biological Reagent Preparation.
Beef brain was removed immediately after slaughter, and choroid plexus were dissected over ice. Male Sprague-Dawley rats weighing 125-150 g (Harlan Industries, Cumberland, Ind.) were killed by decapitation. The brain of each was immediately removed and the cerebral cortex was dissected over ice. Tissues were homogenized in 9 volumes of 0.32 mol/L sucrose and centrifuged at 1,000×g for 10 minutes. The supernatant was centrifuged at 17,000×g for 20 minutes. The pellet was suspended in 100 volumes of 50 mM Tris-HCL (pH7.4), incubated at 37° C. for 10 minutes and centrifuged at 50,000×g for 10 minutes, and the process was repeated three times. The final pellets were frozen at -70° C. and used within 2 weeks. Pellets were rehydrated with physiological buffer prior to use.
Radioligand binding assays for 5-HT1c and 5-HT2 receptors were conducted according to described methods. The assays can be conducted as described by Hoyer D., Functional correlates of serotonin 5-HT1 recognition sites, J. Receptor Res 8, 59-81 (1988) and Hoyer D., Engel G., Kalkman HO Molecular pharmacology of 5-HT1 and 5-HT2 recognition sires in rat and pig brain membranes: Radio-ligand binding studies with [^3 H]5-HT, [^3 H]8-OH-DPAT, (-) [^125 I] iodocyanopindolol, [^3 H]mesulergine and [^3 H]ketanserin, Eur. J. Pharmacol. 118, 13-23 (1985).
For 5-HT2 receptor assays increasing concentrations of experimental compound, 50 mM Tris HCl buffer pH [7.4], and tritiated ketanserin (1 nM) (^3 H ligand) were combined in polystyrene tubes at room temperature. The reaction was initiated by the addition of the resuspended rat cerebral cortex tissue which had been preincubated at 37° C. for 20 minutes. The reaction mixture was incubated in a 37° C. water bath for 30 minutes.
The above assays were modified after a number of compounds had been screened to accomodate the unexpectedly high potency of the compounds of this invention in the 5-HT1c assay. The concentration range of the experimental compound in the assays was changed from [0.1 to 1000 (nM)] to [0.1 to 100 (nM)] to optimize the use of reagents and analysis time.
The reactions were terminated by rapid filtration, (Brandel Cell Harvestor), through Whatman GF/B glass filters that had been presoaked in Tris buffer pH [7.4]. The filters were then washed 2 times with 5 ml of ice cold Tris buffer pH [7.4]. Washed filters were placed in scintillation vials and 10 ml RedySolv, (Brandel), was added and samples were counted in a Searle D-300 beta counter. Means and standard error statistics were calculated for triplicate experimental determinations in certain cases. Mean values were obtained from three or more separate determinations. The incubation time for the reaction mixture was […] at 37° C.
The results of the evaluation of certain compounds of the present invention in the 5-HT1c and 5-HT2 binding assays are set forth below in Table II.

Assay [2] relates to 5-HT1c receptor. Put plainly: 5-HT1c receptor radioligand binding displacement assay ([3H]mesulergine, choroid plexus). Set-up: species or system beef. Conditions: 5-HT1c versus 5-HT2, from Table II.
Protocol: as §1, §2, §3

T2 sequence (P14842 whole entry): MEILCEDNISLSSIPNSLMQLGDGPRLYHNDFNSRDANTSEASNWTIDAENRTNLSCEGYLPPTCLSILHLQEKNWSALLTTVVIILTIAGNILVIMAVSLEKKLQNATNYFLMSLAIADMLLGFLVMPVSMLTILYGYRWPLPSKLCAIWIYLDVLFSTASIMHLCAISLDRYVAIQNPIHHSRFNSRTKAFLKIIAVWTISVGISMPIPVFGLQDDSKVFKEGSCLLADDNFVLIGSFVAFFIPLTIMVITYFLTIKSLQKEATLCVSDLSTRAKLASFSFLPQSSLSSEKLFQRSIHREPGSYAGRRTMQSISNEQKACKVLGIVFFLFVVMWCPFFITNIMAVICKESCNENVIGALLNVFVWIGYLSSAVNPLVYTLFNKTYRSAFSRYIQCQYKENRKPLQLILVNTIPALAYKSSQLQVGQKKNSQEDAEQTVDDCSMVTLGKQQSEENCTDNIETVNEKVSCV

For `c1ccc2c(CC3NCCc4c3[nH]c3c4ccc4ccccc43)cccc2c1` (racemic) [Example 14, (±) 7,8,9,10-tetrahydro-10-(1-naphthalenylmethyl)-11H-benzo[g]pyrido[3,4-b]indole], the IC50 on 5-HT1c receptor [1] was 0.061 µM; at 5-HT2 receptor, over 0.1 µM.

For `Brc1ccc2[nH]c3c(c2c1)CCNC3Cc1cccc2ccccc12` (racemic) [Example 9, (±) 6-bromo-1-(1-naphthalenylmethyl)-1,2,3,4-tetrahydro-9H-pyrido[3,4-b]indole], the IC50 at 5-HT1c receptor [1] came to 0.027 µM; on 5-HT2 receptor, 0.087 µM.

In the case of `CC(C)(C)c1ccc2[nH]c3c(c2c1)CCNC3Cc1cccc2ccccc12` (racemic) [Example 15, (±) 6-(1,1-dimethylethyl)-1,2,3,4-tetrahydro-1-(1-naphthalenylmethyl)-9H-pyrido[3,4b]indole], the half-maximal inhibitory concentration (IC50) at 5-HT1c receptor [1] is 0.011 µM; on 5-HT2 receptor, over 0.1 µM. Moreover, in the assay with 5-HT1c receptor [2], the “5-HT1c selectivity (low IC50 in 5-HT1c assay, higher IC50 in 5-HT2 assay)” value is “particularly 5-HT1c selective”.

Turning to `Cc1ccc2[nH]c3c(c2c1F)CCNC3Cc1cccc2ccccc12` (racemic) [Example 13, (±) 5-fluoro-6-methyl-1-(1-naphthalenylmethyl)-1,2,3,4-tetrahydro-9H-pyrido[3,4-b]indole], the half-inhibitory concentration (IC50) was 0.016 µM at 5-HT1c receptor [1] and over 0.1 µM on 5-HT2 receptor.

For `Cc1ccc2[nH]c3c(c2c1)CCNC3C(C)c1cccc2ccccc12` (racemic) [Example 3, (±) 6-methyl-1-(1-naphthalenyl-1-ethyl)-1,2,3,4-tetrahydro-9H-pyrido[3,4-b]indole], the 50% inhibitory concentration (IC50) is 0.006 µM at 5-HT1c receptor [1] and over 0.1 µM on 5-HT2 receptor.

Turning to `Brc1cccc2c3c([nH]c12)C(Cc1cccc2ccccc12)NCC3` (racemic) [Example 6, (±) 8-bromo-1-(1-naphthalenylmethyl)-1,2,3,4-tetrahydro-9H-pyrido[3,4-b]indolehydrochloride], the IC50 on 5-HT1c receptor [1] was determined as 0.0132 µM; on 5-HT2 receptor, 0.04 µM.

In the case of `COc1ccc(CC2NCCc3c2[nH]c2ccc(C)cc32)c2ccccc12` (racemic) [Example 1, (±) 6-methyl-1-(1-(4-methoxynaphthalenyl)methyl)-1,2,3,4-tetrahydro-9H-pyrido[3,4-b]indole hydrochloride], the 50% inhibitory concentration (IC50) on 5-HT1c receptor [1] was found to be 0.0064 µM; at 5-HT2 receptor, 0.0561 µM.

Regarding `Cc1ccc2[nH]c3c(c2c1)CCN(C)C3Cc1cccc2ccccc12` (racemic) [Example 12, (±) 2,6-dimethyl-1-(1-naphthalenylmethyl)-1,2,3,4-tetrahydro-9H-pyrido[3,4-b]indole hydrochloride], the results for the IC50 on 5-HT1c receptor [1] and at 5-HT2 receptor were 0.054 µM and over 0.1 µM, respectively.

With `CC(C)c1ccc2[nH]c3c(c2c1)CCNC3Cc1cccc2ccccc12` (racemic) [Example 16, (±) 6-(1-methylethyl)-1,2,3,4-tetrahydro-1-(1-naphthalenylmethyl)-9H-pyrido[3,4b]indole], the IC50 is 0.009 µM on 5-HT1c receptor [1] and over 0.1 µM on 5-HT2 receptor. In addition, the “5-HT1c selectivity (low IC50 in 5-HT1c assay, higher IC50 in 5-HT2 assay)” value in the assay with 5-HT1c receptor [2] is “particularly 5-HT1c selective”.

Consider `COc1cccc2c3c([nH]c12)C(Cc1cccc2ccccc12)NCC3` (racemic) [Example 8, (±) 8-methoxy-1-(1-naphthalenylmethyl)-1,2,3,4-tetrahydro-9H-pyrido[3,4-b]indole], for which the 50% inhibitory concentration (IC50) is 0.063 µM at 5-HT1c receptor [1] and 0.065 µM on 5-HT2 receptor.

For the compound `CC(C)c1ccc2[nH]c3c(c2c1)CCNC3C(C)c1cccc2ccccc12` (racemic) [Example 4, hydrochloride], the figures for the half-inhibitory concentration (IC50) at 5-HT1c receptor [1] and on 5-HT2 receptor were 0.014 µM and over 0.1 µM, respectively.

As to `Cc1ccc2[nH]c3c(c2c1)CCN[C@H]3Cc1cccc2ccccc12` [Example 18, (-)-(S)-6-methyl-1,2,3,4-tetrahydro-1-(1-naphthalenylmethyl)-9H-pyrido[3,4-b]indole hydrochloride], the concentration for half-maximal inhibition (IC50) was under 0.1 µM at 5-HT1c receptor [1] and 0.108 µM on 5-HT2 receptor.

`Cc1ccc2c(c1)c1c(n2C)C(Cc2cccc3ccccc23)NCC1` (racemic) [Example 17, (±) 6,9-dimethyl-1,2,3,4-tetrahydro-1-(1-naphthalenylmethyl)-9H-pyrido[3,4-b]indole hydrochloride]: the half-maximal inhibitory concentration (IC50) at 5-HT1c receptor [1] is 0.023 µM; on 5-HT2 receptor it was over 0.1 µM.

Take `Cc1cc(Br)c2[nH]c3c(c2c1)CCNC3Cc1cccc2ccccc12` (racemic) [Example 7, (±) 6-methyl-8-bromo-1-(1-naphthalenylmethyl)-1,2,3,4-tetrahydro-9H-pyrido[3,4-b]indole]: the figures for the IC50 at 5-HT1c receptor [1] and at 5-HT2 receptor were 0.06 µM and 0.247 µM, respectively.

With `Cc1ccc2[nH]c3c(c2c1)CCNC3Cc1cccc2ccccc12` (racemic) [Example 5, (±) 6-methyl-1-(1-naphthalenylmethyl)-1,2,3,4-tetrahydro-9H-pyrido[3,4-b]indole hydrochloride], the half-inhibitory concentration (IC50) at 5-HT1c receptor [1] amounted to 0.03 µM; on 5-HT2 receptor it was 0.267 µM.

For the compound `c1ccc2c(CC3NCCc4c3[nH]c3ccc(C5CCCCC5)cc43)cccc2c1` (racemic) [Example 11, (±) 6-cyclohexyl-1-(1-naphthalenylmethyl)-1,2,3,4-tetrahydro-9H-pyrido[3,4-b]indole hydrochloride], the half-maximal inhibitory concentration (IC50) was 0.189 µM at 5-HT1c receptor [1] and over 0.1 µM at 5-HT2 receptor.

Consider `Cc1ccc2c3c([nH]c2c1Br)C(Cc1cccc2ccccc12)NCC3` (racemic) [Example 10, (±) 7-methyl-8-bromo-1-(1-naphthalenylmethyl)-1,2,3,4-tetrahydro-9H-pyrido[3,4-b]indole hydrochloride], for which the IC50 on 5-HT1c receptor [1] worked out at 0.044 µM; at 5-HT2 receptor, 0.142 µM.
